Reference: patent US7960378B2, “Therapeutic compounds” (Allergan, Inc., priority 2008, dated 2011)

Columns and labels:
Type in all cases: in vivo
[1] = test system: lashes and adjacent hairs of the eyelids; assay: Lash and adjacent hair changes in glaucoma patients treated in one eye; conditions: glaucoma patient treated in only one eye
Text: In the course of treating patients having glaucoma, treatment may only be appropriate in one eye. […] The lash appearance on the lids of the treated eyes would have appeared quite attractive if it represented a bilateral phenomenon. As a result of its asymmetric nature, the long lashes on one side could be construed as disturbing from a cosmetic standpoint. A systemic examination was preformed as a result of the asymmetric phenomenon. It soon became apparent that this altered appearance was not an isolated finding. […] Definite differences could be identified to varying degrees in the lashes and adjacent hairs of all patients who were taking the drug on a unilateral basis for longer than 6 months.
The changes in the lashes were apparent on gross inspection in several patients once attention was focused on the issue. In those with light colored hair and lashes, the differences were only seen easily with the aid of the high magnification and lighting capabilities of the slit lamp biomicroscope. In the course of glaucoma follow-up examination, attention is generally immediately focused on the eye itself. As a result of the high power magnification needed only one eye is seen at a time and the eye is seen at a high enough power that the lashes are not in focus. […]

normotensive dogs = assay: IOP in normotensive dogs; conditions: versus baseline
[2] = test system: laser-induced hypertensive monkeys; assay: IOP in laser-induced hypertensive monkeys; conditions: versus baseline

Compound	lash appearance, treated eye versus non-treated eye [1]	intraocular pressure (IOP) (normotensive dogs)	IOP [2]
CCNC(=O)CCC/C=C\C[C@@H]1[C@@H](/C=C/[C@@H](O)CCc2ccccc2)[C@H](O)C[C@@H]1O [bimatoprost]	longer, thicker, and fuller in the treated eye than in the non-treated eye		
CCC1(C(O)C/C=C/[C@@H]2[C@@H](C/C=C\CCCC(=O)OCCO)[C@H](C#N)C[C@H]2O)CCC1 (stereo partly drawn) [Compound I]		decreases from baseline	decreases from baseline
CCC1(C(O)CCC[C@@H]2[C@@H](CCCc3ccc(C(=O)OCCO)s3)[C@H](C#N)C[C@H]2O)CCC1 (stereo partly drawn) [Compound VI]		decreases from baseline	decreases from baseline
CCC1(C(O)CCC[C@@H]2[C@@H](CCCc3ccc(C(=O)OCCN4CCOCC4)s3)[C@H](C#N)C[C@H]2O)CCC1 (stereo partly drawn) [Compound XIV]		decreases from baseline	decreases from baseline
N#C[C@@H]1C[C@@H](O)[C@H](CCCC(O)C2(c3cccs3)CCC2)[C@H]1CCCCCCC(=O)OCCO (stereo partly drawn) [Compound VIII]		decreases from baseline	decreases from baseline
CCC1(C(O)CCC[C@@H]2[C@@H](CCCCCCC(=O)OCCO)[C@H](C#N)C[C@H]2O)CCC1 (stereo partly drawn) [Compound III]		decreases from baseline	decreases from baseline
N#C[C@@H]1C[C@@H](O)[C@H](CCCC(O)C2(c3cccs3)CCC2)[C@H]1CCCCCCC(=O)OCCN1CCOCC1 (stereo partly drawn) [Compound XV]		decreases from baseline	decreases from baseline
N#C[C@@H]1C[C@@H](O)[C@H](/C=C/CC(O)C2(Cc3ccc(Cl)s3)CCC2)[C@H]1C/C=C\CCCC(=O)OCCN1CCOCC1 (stereo partly drawn) [Compound XIII]		decreases from baseline	decreases from baseline
N#C[C@@H]1C[C@@H](O)[C@H](/C=C/CC(O)C2(c3cccs3)CCC2)[C@H]1C/C=C\CCCC(=O)OCCN1CCOCC1 (stereo partly drawn) [Compound X]		decreases from baseline	decreases from baseline
CCC1(C(O)CCC[C@@H]2[C@@H](CCCCCCC(=O)OCCN3CCOCC3)[C@H](C#N)C[C@H]2O)CCC1 (stereo partly drawn) [Compound XI]		decreases from baseline	decreases from baseline
CCC1(C(O)C/C=C/[C@@H]2[C@@H](C/C=C\CCCC(=O)OCCN3CCOCC3)[C@H](C#N)C[C@H]2O)CCC1 (stereo partly drawn) [Compound IX]		decreases from baseline	decreases from baseline
N#C[C@@H]1C[C@@H](O)[C@H](/C=C/CC(O)C2(c3cccs3)CCC2)[C@H]1CCCCCCC(=O)OCCO (stereo partly drawn) [Compound IV]		decreases from baseline	decreases from baseline
N#C[C@@H]1C[C@@H](O)[C@H](/C=C/CC(O)C2(Cc3ccc(Cl)s3)CCC2)[C@H]1C/C=C\CCCC(=O)OCCO (stereo partly drawn) [Compound V]		decreases from baseline	decreases from baseline
CCC1(C(O)C/C=C/[C@@H]2[C@@H](CCCc3ccc(C(=O)OCCN4CCOCC4)s3)[C@H](C#N)C[C@H]2O)CCC1 (stereo partly drawn) [Compound XVI]		decreases from baseline	decreases from baseline
N#C[C@@H]1C[C@@H](O)[C@H](/C=C/CC(O)C2(c3cccs3)CCC2)[C@H]1C/C=C\CCCC(=O)OCCO (stereo partly drawn) [Compound II]		decreases from baseline	decreases from baseline
N#C[C@@H]1C[C@@H](O)[C@H](/C=C/CC(O)C2(c3cccs3)CCC2)[C@H]1CCCCCCC(=O)OCCN1CCOCC1 (stereo partly drawn) [Compound XII]		decreases from baseline	decreases from baseline
CCC1(C(O)C/C=C/[C@@H]2[C@@H](CCCc3ccc(C(=O)OCCO)s3)[C@H](C#N)C[C@H]2O)CCC1 (stereo partly drawn) [Compound VII]		decreases from baseline	decreases from baseline
